Source: patent US20070117743A1, “New antitumoral compounds” (priority 2003, published 2007)
Where a SMILES comes first, the peptide text is derived from it. Bridges are numbered along the chain shown (N, C = ends). [ ]: non-standard residue; d: D form. The star is where a group is joined. ξ: configuration not given here. Pro(3ξ,4ξ-(CH2)4) = O=C(O)[C@H]1NCC2CCCCC21; Hexanoyl(4S-Me) = CC[C@H](C)CCC(=O)*; d(aIle) = CC[C@H](C)[C@@H](N)C(=O)O; d(aThr) = C[C@@H](O)[C@@H](N)C(=O)O; Orn = NCCC[C@H](N)C(=O)O; Dhb = C/C=C(\N)C(=O)O

Experiments:
Assay type in all cases: cell-based, human
[1] = system: K-562; assay: SRB colorimetric assay of cell growth and viability, K-562; details: 48 hours exposure, SRB; for CC50: read-out: LC50 K-562
[2] = system: HT-29; assay: SRB colorimetric assay of cell growth and viability, HT-29; details: 48 hours exposure, SRB; for GI50: read-out: GI50 HT-29; for CC50: read-out: LC50 HT-29
[3] = system: PANC-1; assay: SRB colorimetric assay of cell growth and viability, PANC-1; details: 48 hours exposure, SRB; for CC50: read-out: LC50 PANC-1
[4] = system: HeLa-APL; assay: SRB colorimetric assay of cell growth and viability, HeLa-APL; details: 48 hours exposure, SRB; for CC50: read-out: LC50 HELA-APL
[5] = system: A-549; assay: SRB colorimetric assay of cell growth and viability, A-549; details: 48 hours exposure, SRB; for GI50: read-out: GI50 A-549; for CC50: read-out: LC50 A-549
[6] = system: SK-BR-3; assay: SRB colorimetric assay of cell growth and viability, SK-BR-3; details: 48 hours exposure, SRB
Description: The finality of this assay is to interrupt the growth of a “in vitro” tumor cell culture by means a continued exhibition of the cells to the sample to be testing.
This form of the assay employs 96 well cell culture microplates of 9 mm diameter (Faircloth, 1988; Mosmann, 1983). Most of the cell lines are obtained from American Type Culture Collection (ATCC) derived from different human cancer types.
Cells are maintained in RPMI 1640 10% FBS, supplemented with 0.1 g/l penicillin and 0.1 g/l streptomycin sulfate and then incubated at 37° C., 5% CO2 and 98% humidity. For the experiments, cells were harvested from subconfluent cultures using trypsin and resuspended in fresh medium before plating.
Cells are seeded in 96 well microtiter plates, at 5×10^3 cells per well in aliquots of 195 μL medium, and they are allowed to attach to the plate surface by growing in drug free medium for 18 hours. Afterward, samples are added in aliquots of 5 μL in a ranging from 10 to 10^−8 μg/mL, dissolved in DMSO:EtOH:PBS (0.5:0.5:99). After 48 hours exposure, the antitumor effect are measured by the SRB methodology: cells are fixed by adding 50 μL of cold 50% (wt/vol) trichloroacetic acid (TCA) and incubating for 60 minutes at 4° C. Plates are washed with deionized water and dried. One hundred μL of SRB solution (0.4% wt/vol in 1% acetic acid) is added to each microtiter well and incubated for 10 minutes at room temperature. Unbound SRB is removed by washing with 1% acetic acid. Plates are air dried and bound stain is solubilized with Tris buffer. Optical densities are read on a automated spectrophotometric plate reader at a single wavelength of 490 nm.
The values for mean+/− SD of data from triplicate wells are calculated. Some parameters for cellular responses can be calculated: GI=growth inhibition, TGI=total growth inhibition (cytostatic effect) and LC=cell killing (cytotoxic effect).

[7] = system: LoVo; assay: SRB colorimetric assay of cell growth and viability, LoVo; details: 48 hours exposure, SRB; for CC50: read-out: LC50 LOVO
[8] = system: SK-MEL-28; assay: SRB colorimetric assay of cell growth and viability, SK-MEL-28; details: 48 hours exposure, SRB; for CC50: read-out: LC50 MEL-28
[9] = system: IGROV-1; assay: SRB colorimetric assay of cell growth and viability, IGROV-1; details: 48 hours exposure, SRB
[10] = system: IGROV-ET; assay: SRB colorimetric assay of cell growth and viability, IGROV-ET; details: 48 hours exposure, SRB; for CC50: read-out: LC50 IGROV-ET
[11] = system: DU-145; assay: SRB colorimetric assay of cell growth and viability, DU-145; details: 48 hours exposure, SRB
[12] = system: LoVo-Dox; assay: SRB colorimetric assay of cell growth and viability, LoVo-Dox; details: 48 hours exposure, SRB; for CC50: read-out: LC50 LOVO-DOX
Summary of the method: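 Absorbance at 490 nm of Tris-solubilized sulforhodamine B gives the read-out after cells are fixed with cold 50% TCA for 60 min at 4° C. Compound exposure lasts 48 hours over 10 to 10^−8 μg/mL. Growth inhibition, total growth inhibition and lethal concentration are calculated from triplicate wells.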

[13] = system: HeLa; assay: SRB colorimetric assay of cell growth and viability, HeLa; details: 48 hours exposure, SRB; for CC50: read-out: LC50 HELA

SMILES	GI50 [1]	TGI K-562 [1]	CC50 [1]	TGI HT-29 [2]	GI50 [2]	CC50 [2]	GI50 [3]	TGI PANC-1 [3]	CC50 [3]	GI50 [4]	TGI HELA-APL [4]	CC50 [4]	TGI A-549 [5]	GI50 [5]	CC50 [5]	GI50 [6]	LC50 [6]	TGI SK-BR-3 [6]	GI50 [7]	TGI LOVO [7]	further results
C/C=C1\NC(=O)[C@@H]2C3CCCCC3CN2C(=O)[C@@H](C(C)C)NC(=O)[C@@H]([C@@H](C)CC)NC(=O)[C@H](NC(=O)[C@H](NC(=O)[C@H](CCCN)NC(=O)[C@H]2CCCN2C(=O)[C@H](NC(=O)[C@@H](NC(=O)[C@@H](NC(=O)[C@H](NC(=O)CC[C@@H](C)CC)C(C)C)[C@@H](C)O)C(C)C)C(C)C)[C@@H](C)CC)[C@@H](C)OC(=O)[C@H](C(C)C)NC1=O (stereo partly drawn) [Compound 79, [Oic^3, (4S)-MeHex^14]-KF] ({Hexanoyl(4S-Me)}-[dV]TV[dV][dP][Orn][d(aIle)][d(aThr)][d(aIle)][dV][Pro(3ξ,4ξ-(CH2)4)][Dhb]V; ester 8-C)	1710 nM	4.02E−06 Molar	≥ 6.75 µM	2.43E−06 Molar	1440 nM	4090 nM	≥ 6750 nM	6.75E−06 Molar	≥ 6.75 µM	4800 nM	6.75E−06 Molar	≥ 6.75 µM	6.75E−06 Molar	4420 nM	≥ 6.75 µM	796 nM	3430 nM	1.65E−06 Molar	591 nM	1.40E−06 Molar	CC50 [7]: 3020 nM; GI50 [8]: 2310 nM; TGI MEL-28 [8]: 6.75E−06 Molar; CC50 [8]: ≥ 6.75 µM; GI50 [9]: 1910 nM; LC50 (concentration causing 50% net cell killing) [9]: 5.55 µM; TGI IGROV [9]: 3.25E−06 Molar; GI50 [10]: 1980 nM; TGI IGROV-ET [10]: 4.28E−06 Molar; CC50 [10]: ≥ 6.75 µM; GI50 [11]: 6.01 µM; LC50 (concentration causing 50% net cell kill) [11]: ≥ 6.75 µM; TGI DU-145 [11]: 6.75E−06 Molar; GI50 [12]: 387 nM; TGI LOVO-DOX [12]: 1.15E−06 Molar; CC50 [12]: 2560 nM; GI50 [13]: 2690 nM; TGI HELA [13]: 6.75E−06 Molar; CC50 [13]: ≥ 6750 nM
C/C=C1\NC(=O)[C@H](Cc2ccccc2)N(C)C(=O)[C@@H](C(C)C)NC(=O)[C@@H]([C@@H](C)CC)NC(=O)[C@H](NC(=O)[C@H](NC(=O)[C@H](CCCN)NC(=O)[C@H]2CCCN2C(=O)[C@H](NC(=O)[C@@H](NC(=O)[C@@H](NC(=O)[C@H](NC(=O)CC[C@@H](C)CC)C(C)C)[C@@H](C)O)C(C)C)C(C)C)[C@@H](C)CC)[C@@H](C)OC(=O)[C@H](C(C)C)NC1=O [Compound 80, [NMePhe^3, (4S)-MeHex^14]-KF]	744 nM	1.62E−06 Molar	3.54 µM	4.03E−07 Molar	178 nM	1200 nM	1900 nM	3.82E−06 Molar	6.7 µM	845 nM	1.64E−06 Molar	3.19 µM	2.03E−06 Molar	1130 nM	3.67 µM	123 nM	1430 nM	3.29E−07 Molar	125 nM	2.61E−07 Molar	CC50 [7]: 545 nM; GI50 [8]: 1320 nM; TGI MEL-28 [8]: 2.25E−06 Molar; CC50 [8]: 3.84 µM; GI50 [9]: 416 nM; LC50 (concentration causing 50% net cell killing) [9]: 2.82 µM; TGI IGROV [9]: 1.17E−06 Molar; GI50 [10]: 583 nM; TGI IGROV-ET [10]: 1.39E−06 Molar; CC50 [10]: 3.04 µM; GI50 [11]: 1.07 µM; LC50 (concentration causing 50% net cell kill) [11]: 3.62 µM; TGI DU-145 [11]: 1.97E−06 Molar; GI50 [12]: 120 nM; TGI LOVO-DOX [12]: 2.08E−07 Molar; CC50 [12]: 359 nM; GI50 [13]: 392 nM; TGI HELA [13]: 1.19E−06 Molar; CC50 [13]: 2510 nM
